Reference: patent publication US11180474B2 (BRISTOL-MYERS SQUIBB COMPANY, priority 2016, dated 2021)

Key:
human TLR7 = molecular target: T1, human TLR7 (Homo sapiens, UniProt Q9NYK1); assay: TLR7 inhibition reporter assay (HEK-Blue cells, SEAP reporter, gardiquimod stimulation); format: cell-based; conditions: HEK-Blue cells overexpressing human TLR7, gardiquimod 7.5 μM
T1 construct: host or cells: HEK-Blue cells
T1 sequence (Q9NYK1 27-1049): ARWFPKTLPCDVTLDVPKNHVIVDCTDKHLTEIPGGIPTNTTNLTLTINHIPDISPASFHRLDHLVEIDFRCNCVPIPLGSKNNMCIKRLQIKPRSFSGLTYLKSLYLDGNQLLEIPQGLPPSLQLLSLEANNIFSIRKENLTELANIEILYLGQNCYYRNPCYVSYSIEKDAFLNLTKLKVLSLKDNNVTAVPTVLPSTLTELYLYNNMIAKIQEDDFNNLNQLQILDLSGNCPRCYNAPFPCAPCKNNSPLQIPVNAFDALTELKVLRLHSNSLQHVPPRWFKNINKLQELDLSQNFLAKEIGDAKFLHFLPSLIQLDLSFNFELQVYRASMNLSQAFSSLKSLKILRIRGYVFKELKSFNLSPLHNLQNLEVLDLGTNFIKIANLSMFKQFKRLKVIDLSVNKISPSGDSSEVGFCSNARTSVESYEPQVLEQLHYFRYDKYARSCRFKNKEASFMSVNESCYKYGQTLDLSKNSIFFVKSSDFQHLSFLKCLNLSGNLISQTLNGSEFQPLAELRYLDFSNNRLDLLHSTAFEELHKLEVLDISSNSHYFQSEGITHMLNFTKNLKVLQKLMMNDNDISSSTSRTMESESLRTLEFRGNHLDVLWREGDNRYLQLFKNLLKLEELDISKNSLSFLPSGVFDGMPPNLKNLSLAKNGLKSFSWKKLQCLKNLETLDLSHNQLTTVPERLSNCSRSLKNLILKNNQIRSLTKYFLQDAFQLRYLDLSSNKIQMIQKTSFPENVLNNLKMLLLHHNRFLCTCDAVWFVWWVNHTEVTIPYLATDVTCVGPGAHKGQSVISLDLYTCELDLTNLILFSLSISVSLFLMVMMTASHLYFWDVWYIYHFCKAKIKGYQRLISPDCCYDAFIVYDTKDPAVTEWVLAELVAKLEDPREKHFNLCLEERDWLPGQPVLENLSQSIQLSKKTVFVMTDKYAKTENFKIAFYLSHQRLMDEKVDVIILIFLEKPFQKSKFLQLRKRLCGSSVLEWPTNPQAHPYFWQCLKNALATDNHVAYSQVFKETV
Summary of the method: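 In this cell reporter format, test compounds at 0.05 nM-50 μM final incubate 22 h with seeded cells (TLR7 15000, TLR8 20,000 per well). SEAP read-out by HEK-Blue Detection medium yields % inhibition relative to agonist/DMSO and known-inhibitor wells.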

human TLR9 = molecular target: T2, human TLR9 (Homo sapiens, UniProt Q9NR96); assay: TLR9 inhibition reporter assay (HEK-Blue cells, SEAP reporter, ODN2006 stimulation); format: cell-based; conditions: HEK-Blue cells overexpressing human TLR9, ODN2006 5 nM
T2 construct: host or cells: HEK-Blue cells
T2 sequence (Q9NR96 26-1032): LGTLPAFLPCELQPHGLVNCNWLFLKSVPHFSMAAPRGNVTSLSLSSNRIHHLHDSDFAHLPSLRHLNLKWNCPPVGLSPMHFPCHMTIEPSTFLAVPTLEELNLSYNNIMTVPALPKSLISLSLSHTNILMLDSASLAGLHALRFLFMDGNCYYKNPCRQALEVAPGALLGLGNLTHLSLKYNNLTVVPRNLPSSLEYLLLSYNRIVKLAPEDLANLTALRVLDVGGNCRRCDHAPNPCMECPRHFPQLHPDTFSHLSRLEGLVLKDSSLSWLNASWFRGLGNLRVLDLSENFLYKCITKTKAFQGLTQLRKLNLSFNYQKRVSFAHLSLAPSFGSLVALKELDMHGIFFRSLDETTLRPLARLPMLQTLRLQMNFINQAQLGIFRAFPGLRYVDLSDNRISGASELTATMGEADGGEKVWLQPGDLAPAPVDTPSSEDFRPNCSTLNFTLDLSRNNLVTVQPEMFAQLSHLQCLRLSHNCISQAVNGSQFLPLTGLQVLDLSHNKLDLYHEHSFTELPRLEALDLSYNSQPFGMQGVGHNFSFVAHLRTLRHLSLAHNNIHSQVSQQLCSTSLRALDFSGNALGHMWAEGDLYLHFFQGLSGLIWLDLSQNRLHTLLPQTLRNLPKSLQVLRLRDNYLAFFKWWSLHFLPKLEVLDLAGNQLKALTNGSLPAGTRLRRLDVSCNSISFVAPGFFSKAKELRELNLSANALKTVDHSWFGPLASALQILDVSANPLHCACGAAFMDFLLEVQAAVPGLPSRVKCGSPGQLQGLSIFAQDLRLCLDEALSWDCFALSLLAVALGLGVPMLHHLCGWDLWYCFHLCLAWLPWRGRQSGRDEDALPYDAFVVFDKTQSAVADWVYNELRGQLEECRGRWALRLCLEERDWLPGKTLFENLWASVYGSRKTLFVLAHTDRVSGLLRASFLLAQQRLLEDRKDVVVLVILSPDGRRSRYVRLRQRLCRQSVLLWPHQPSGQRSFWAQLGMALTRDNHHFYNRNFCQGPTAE
Summary of the method: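 Dose–response from 0.05 nM to 50 μM was run in HEK-Blue human TLR7, TLR8 and TLR9 reporter cells. After 30 min at room temperature with compound, ligand was added (TLR7 gardiquimod 7.5 μM; TLR8 R848 15.9 μM; TLR9 ODN2006 5 nM) and SEAP measured next day, at 22 h.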

IC50 (human TLR7) | IC50 (human TLR9) | SMILES
23 nM | 563 nM | COc1ccc(-c2[nH]c3ccc(C4CCN(CC(=O)N5CCC(N(C)C)CC5)CC4)cc3c2CC(F)(F)F)cc1OC [Example 364, 2-(4-(2-(3,4-dimethoxyphenyl)-3-(2,2,2-trifluoroethyl)-1H-indol-5-yl)piperidin-1-yl)-1-(4-(dimethylamino)piperidin-1-yl)ethan-1-one]
359 nM | 27800 nM | COc1ccc(-c2[nH]c3ccc(C4CCN(C(=O)[C@@H]5CCCN5C(C)=O)CC4)cc3c2CC(F)(F)F)cc1OC [Example 336, (S)-1-(2-(4-(2-(3,4-dimethoxyphenyl)-3-(2,2,2-trifluoroethyl)-1H-indol-5-yl)piperidine-1-carbonyl)pyrrolidin-1-yl)ethan-1-one]
155 nM | 39100 nM | COc1ccc(-c2[nH]c3ccc(C4CCN(C(=O)CS(C)(=O)=O)CC4)cc3c2CC(F)(F)F)cc1OC [Example 347, 1-(4-(2-(3,4-dimethoxyphenyl)-3-(2,2,2-trifluoroethyl)-1H-indol-5-yl)piperidin-1-yl)-2-(methylsulfonyl)ethan-1-one]
233 nM | 8650 nM | CCC(C)NC(=O)CN1CCC(c2ccc3[nH]c(-c4ccc(OC)c(OC)c4)c(CC(F)(F)F)c3c2)CC1 (centres unmarked) [Example 377, N-(sec-butyl)-2-(4-(2-(3,4-dimethoxyphenyl)-3-(2,2,2-trifluoroethyl)-1H-indol-5-yl)piperidin-1-yl)acetamide]
9 nM | 252 nM | COc1ccc(-c2[nH]c3ccc(C4CCN(CC(=O)N5CC[C@H](N(C)C)C5)CC4)cc3c2CC(F)(F)F)cc1OC [Example 374, (S)-2-(4-(2-(3,4-dimethoxyphenyl)-3-(2,2,2-trifluoroethyl)-1H-indol-5-yl)piperidin-1-yl)-1-(3-(dimethylamino)pyrrolidin-1-yl) ethan-1-one]
19 nM | 267 nM | COc1ccc(-c2[nH]c3ccc(C4CCN(CC(=O)N5CCC(N6CCCCC6)CC5)CC4)cc3c2CC(F)(F)F)cc1OC [Example 359, 1-([1,4′-bipiperidin]-1′-yl)-2-(4-(2-(3,4-dimethoxyphenyl)-3-(2,2,2-trifluoroethyl)-1H-indol-5-yl)piperidin-1-yl)ethan-1-one]
1490 nM | ≥ 50000 nM | COc1ccc(-c2[nH]c3ccc(C4CCN(C(=O)Cc5ccc(N(C)C)cc5)CC4)cc3c2CC(F)(F)F)cc1OC [Example 338, 1-(4-(2-(3,4-dimethoxyphenyl)-3-(2,2,2-trifluoroethyl)-1H-indol-5-yl)piperidin-1-yl)-2-(4-(dimethylamino)phenyl)ethan-1-one]
42 nM | 2870 nM | COc1ccc(-c2[nH]c3ccc(C4CCNCC4F)cc3c2C(C)C)cc1OC (single isomer, unassigned) [Example 323, 2-(3,4-dimethoxyphenyl)-5-(3-fluoropiperidin-4-yl)-3-isopropyl-1H-indole]
17 nM | 1560 nM | COc1ccc(-c2[nH]c3ccc(C4CCN(C(=O)CCCN(C)C)CC4)cc3c2CC(F)(F)F)cc1OC [Example 351, 1-(4-(2-(3,4-dimethoxyphenyl)-3-(2,2,2-trifluoroethyl)-1H-indol-5-yl)piperidin-1-yl)-4-(dimethylamino)butan-1-one]
618 nM | ≥ 50000 nM | CCNC(=O)N1CCC(c2ccc3[nH]c(-c4ccc(OC)c(OC)c4)c(CC(F)(F)F)c3c2)CC1 [Example 356, 4-(2-(3,4-dimethoxyphenyl)-3-(2,2,2-trifluoroethyl)-1H-indol-5-yl)-N-ethylpiperidine-1-carboxamide]
45 nM | 9110 nM | COc1ccc(-c2[nH]c3ccc(C4CCNCC4F)cc3c2C(C)C)cc1OC (racemic) [Example 319, 2-(3,4-dimethoxyphenyl)-5-(3-fluoropiperidin-4-yl)-3-isopropyl-1H-indole]
79 nM | 2460 nM | COc1ccc(-c2[nH]c3ccc(C4CCN(CC(=O)N5CCC[C@@H]5CO)CC4)cc3c2CC(F)(F)F)cc1OC [Example 371, (R)-2-(4-(2-(3,4-dimethoxyphenyl)-3-(2,2,2-trifluoroethyl)-1H-indol-5-yl)piperidin-1-yl)-1-(2-(hydroxymethyl)pyrrolidin-1-yl)ethan-1-one]
256 nM | 25200 nM | COc1ccc(-c2[nH]c3ccc(C4CCN(C(=O)C5CCN(C(C)=O)CC5)CC4)cc3c2CC(F)(F)F)cc1OC [Example 345, 1-(4-(4-(2-(3,4-dimethoxyphenyl)-3-(2,2,2-trifluoroethyl)-1H-indol-5-yl)piperidine-1-carbonyl)piperidin-1-yl)ethan-1-one]
≥ 50000 nM | ≥ 50000 nM | COc1ccc(-c2[nH]c3ccc(C4CCN(C(=O)NCc5ccco5)CC4)cc3c2CC(F)(F)F)cc1OC [Example 358, 4-(2-(3,4-dimethoxyphenyl)-3-(2,2,2-trifluoroethyl)-1H-indol-5-yl)-N-(furan-2-ylmethyl)piperidine-1-carboxamide]
132 nM | 5290 nM | CNC(=O)CN1CCC(c2ccc3[nH]c(-c4ccc(OC)c(OC)c4)c(CC(F)F)c3c2)CC1 [Example 401, 2-(4-(3-(2,2-difluoroethyl)-2-(3,4-dimethoxyphenyl)-1H-indol-5-yl)piperidin-1-yl)-N-methylacetamide]
127 nM | ≥ 50000 nM | COc1ccc(-c2[nH]c3ccc(C4CCNC(=O)C4)cc3c2C(C)C)cc1OC (centres unmarked) [Example 326, 4-(2-(3,4-dimethoxyphenyl)-3-isopropyl-1H-indol-5-yl)piperidin-2-one]
16 nM | 370 nM | COc1ccc(-c2[nH]c3ccc(C4CCN(CC(=O)N5CC[C@@H](N(C)C)C5)CC4)cc3c2CC(F)(F)F)cc1OC [Example 373, (R)-2-(4-(2-(3,4-dimethoxyphenyl)-3-(2,2,2-trifluoroethyl)-1H-indol-5-yl)piperidin-1-yl)-1-(3-(dimethylamino)pyrrolidin-1-yl)ethan-1-one]
94 nM | 4230 nM | COc1ccc(-c2[nH]c3ccc(C4CCN(CC(=O)NCCNC(C)=O)CC4)cc3c2CC(F)(F)F)cc1OC [Example 379, N-(2-acetamidoethyl)-2-(4-(2-(3,4-dimethoxyphenyl)-3-(2,2,2-trifluoroethyl)-1H-indol-5-yl)piperidin-1-yl)acetamide]
157 nM | 3960 nM | COc1ccc(-c2[nH]c3ccc(C4CCN(CC(=O)N(C)C)CC4)cc3c2CC(F)F)cc1OC [Example 400, 2-(4-(3-(2,2-difluoroethyl)-2-(3,4-dimethoxyphenyl)-1H-indol-5-yl)piperidin-1-yl)-N,N-dimethylacetamide]
